Laboratory results reported in patent publication US20190008797A1, “ESTROGEN RECEPTOR ALPHA COLIGANDS, AND METHODS OF USE THEREOF” (priority 2016, published 2019).

Columns and labels:
[1] = test system: MCF-7 cells; assay: MCF-7 cell proliferation (cell counting); settings: 5 days
[2] = test system: MCF-7 cells; assay: KRT19 mRNA RT-QPCR in MCF-7 cells; settings: 5 μM + 10 nM E2, 4 hours
[3] = test system: U2OS-ERα cells; assay: Real-time PCR of unique genes FGR, KCNK6, KRT73 in U2OS-ERα cells; format: cell-based, human; settings: E2 in combination with 5 μM 2′,3′,4′-THC, 24 hrs
Experimental: Expression was assessed by up regulation or down regulation of 3-fold or more and a P-value≤0.05. […] Error bars are ±SEM.
(FIGS. 6a, 6b) Gene expression of (FIG. 6a) KRT73 and (FIG. 6b) NKG2E in U2OS-ERα cells treated with 10 nM estradiol, 5 μM 2′, 3′, 4′-THC, 1μM ICI alone or in combination for 24 hours. […] Error bars are ±SEM. […] After transfection, luciferase activities were measured as described in the Methods. RLU is relative light units and the data shown are mean ±SEM. (FIG. 6c). […] After transfection, luciferase activities were measured as described in the Methods. RLU is relative light units and the data shown are mean ±SEM (FIG. 6d).

[4] = molecular target: T1, ERβ (Homo sapiens, UniProt Q92731); assay: ERE-tk luciferase transfection assay, U2OS cells cotransfected with ERβ; format: cell-based
T1 construct: expressed in transfected cells; host or cells: U2OS
T1 sequence (Q92731 whole entry): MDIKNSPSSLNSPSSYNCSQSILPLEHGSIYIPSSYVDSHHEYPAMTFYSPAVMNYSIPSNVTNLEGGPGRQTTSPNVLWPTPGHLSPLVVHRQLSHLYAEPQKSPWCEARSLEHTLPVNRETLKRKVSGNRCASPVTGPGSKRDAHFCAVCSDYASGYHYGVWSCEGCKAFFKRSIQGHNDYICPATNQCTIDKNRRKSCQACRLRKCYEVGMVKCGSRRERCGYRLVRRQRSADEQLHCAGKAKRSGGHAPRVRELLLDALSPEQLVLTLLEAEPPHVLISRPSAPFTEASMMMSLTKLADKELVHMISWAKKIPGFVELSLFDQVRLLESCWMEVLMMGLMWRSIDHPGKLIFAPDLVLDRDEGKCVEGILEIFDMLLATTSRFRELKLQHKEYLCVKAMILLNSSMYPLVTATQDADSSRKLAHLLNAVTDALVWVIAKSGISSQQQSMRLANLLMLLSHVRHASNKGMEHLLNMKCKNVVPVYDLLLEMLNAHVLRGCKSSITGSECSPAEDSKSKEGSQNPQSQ

## O=C(/C=C/c1ccccc1)c1ccc(O)c(O)c1O [2′, 3′, 4′-THC, 2′, 3′, 4′-trihydroxychalcone]
[1]; 1, 5 and 10 μM, dose-dependent
  effect on proliferation induced by E2: blocked
[1]
  MCF-7 cell proliferation, compound alone: no effect
[2]
  effect on E2 activation of the KRT19 gene: did not have a significant effect
[3]
  E2 dose at which FGR expression was induced: 0.1 nM
  E2 dose at which KCNK6 expression was induced: 1 nM
  E2 dose at which KRT73 expression was induced: 1 nM
[4]; ERβ, 5 μM + 10 nM E2, 24 hours
  luciferase activity with E2: synergistic increase
[4]; U2OS cells transfected with ERβ, 5 μM, 24 hours
  activity on ERE luciferase, compound alone: inactive
